Target: Cav2.3 (Homo sapiens, UniProt Q15878)
Assay: Human Cav2.3 channel calcium-influx assay
Format: cell-based
Conditions: Fluo8 fluorescence, HEK-293 T-Rex/Kir2.1/Cav2.3e cells, without pluronic acid, read-out: Cav2.3 (pIC50) (converted)
Method in brief: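 HEK-293 T-Rex/Kir2.1 cells with doxycycline (0.2 μg/mL)-inducible Cav2.3e plus Cavβ4-α2δ1, loaded with Fluo8 NW in 0 mM K+ Tyrode's. Compounds (8 points, top 30 μM, half-log, 0.3% final DMSO, n=4) preincubated 3 min at RT, then depolarized with 20 mM KCl/2 mM CaCl2 (final); fluorescence read 130 s.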

Cav2.3, sequence (Q15878 whole entry, looked up): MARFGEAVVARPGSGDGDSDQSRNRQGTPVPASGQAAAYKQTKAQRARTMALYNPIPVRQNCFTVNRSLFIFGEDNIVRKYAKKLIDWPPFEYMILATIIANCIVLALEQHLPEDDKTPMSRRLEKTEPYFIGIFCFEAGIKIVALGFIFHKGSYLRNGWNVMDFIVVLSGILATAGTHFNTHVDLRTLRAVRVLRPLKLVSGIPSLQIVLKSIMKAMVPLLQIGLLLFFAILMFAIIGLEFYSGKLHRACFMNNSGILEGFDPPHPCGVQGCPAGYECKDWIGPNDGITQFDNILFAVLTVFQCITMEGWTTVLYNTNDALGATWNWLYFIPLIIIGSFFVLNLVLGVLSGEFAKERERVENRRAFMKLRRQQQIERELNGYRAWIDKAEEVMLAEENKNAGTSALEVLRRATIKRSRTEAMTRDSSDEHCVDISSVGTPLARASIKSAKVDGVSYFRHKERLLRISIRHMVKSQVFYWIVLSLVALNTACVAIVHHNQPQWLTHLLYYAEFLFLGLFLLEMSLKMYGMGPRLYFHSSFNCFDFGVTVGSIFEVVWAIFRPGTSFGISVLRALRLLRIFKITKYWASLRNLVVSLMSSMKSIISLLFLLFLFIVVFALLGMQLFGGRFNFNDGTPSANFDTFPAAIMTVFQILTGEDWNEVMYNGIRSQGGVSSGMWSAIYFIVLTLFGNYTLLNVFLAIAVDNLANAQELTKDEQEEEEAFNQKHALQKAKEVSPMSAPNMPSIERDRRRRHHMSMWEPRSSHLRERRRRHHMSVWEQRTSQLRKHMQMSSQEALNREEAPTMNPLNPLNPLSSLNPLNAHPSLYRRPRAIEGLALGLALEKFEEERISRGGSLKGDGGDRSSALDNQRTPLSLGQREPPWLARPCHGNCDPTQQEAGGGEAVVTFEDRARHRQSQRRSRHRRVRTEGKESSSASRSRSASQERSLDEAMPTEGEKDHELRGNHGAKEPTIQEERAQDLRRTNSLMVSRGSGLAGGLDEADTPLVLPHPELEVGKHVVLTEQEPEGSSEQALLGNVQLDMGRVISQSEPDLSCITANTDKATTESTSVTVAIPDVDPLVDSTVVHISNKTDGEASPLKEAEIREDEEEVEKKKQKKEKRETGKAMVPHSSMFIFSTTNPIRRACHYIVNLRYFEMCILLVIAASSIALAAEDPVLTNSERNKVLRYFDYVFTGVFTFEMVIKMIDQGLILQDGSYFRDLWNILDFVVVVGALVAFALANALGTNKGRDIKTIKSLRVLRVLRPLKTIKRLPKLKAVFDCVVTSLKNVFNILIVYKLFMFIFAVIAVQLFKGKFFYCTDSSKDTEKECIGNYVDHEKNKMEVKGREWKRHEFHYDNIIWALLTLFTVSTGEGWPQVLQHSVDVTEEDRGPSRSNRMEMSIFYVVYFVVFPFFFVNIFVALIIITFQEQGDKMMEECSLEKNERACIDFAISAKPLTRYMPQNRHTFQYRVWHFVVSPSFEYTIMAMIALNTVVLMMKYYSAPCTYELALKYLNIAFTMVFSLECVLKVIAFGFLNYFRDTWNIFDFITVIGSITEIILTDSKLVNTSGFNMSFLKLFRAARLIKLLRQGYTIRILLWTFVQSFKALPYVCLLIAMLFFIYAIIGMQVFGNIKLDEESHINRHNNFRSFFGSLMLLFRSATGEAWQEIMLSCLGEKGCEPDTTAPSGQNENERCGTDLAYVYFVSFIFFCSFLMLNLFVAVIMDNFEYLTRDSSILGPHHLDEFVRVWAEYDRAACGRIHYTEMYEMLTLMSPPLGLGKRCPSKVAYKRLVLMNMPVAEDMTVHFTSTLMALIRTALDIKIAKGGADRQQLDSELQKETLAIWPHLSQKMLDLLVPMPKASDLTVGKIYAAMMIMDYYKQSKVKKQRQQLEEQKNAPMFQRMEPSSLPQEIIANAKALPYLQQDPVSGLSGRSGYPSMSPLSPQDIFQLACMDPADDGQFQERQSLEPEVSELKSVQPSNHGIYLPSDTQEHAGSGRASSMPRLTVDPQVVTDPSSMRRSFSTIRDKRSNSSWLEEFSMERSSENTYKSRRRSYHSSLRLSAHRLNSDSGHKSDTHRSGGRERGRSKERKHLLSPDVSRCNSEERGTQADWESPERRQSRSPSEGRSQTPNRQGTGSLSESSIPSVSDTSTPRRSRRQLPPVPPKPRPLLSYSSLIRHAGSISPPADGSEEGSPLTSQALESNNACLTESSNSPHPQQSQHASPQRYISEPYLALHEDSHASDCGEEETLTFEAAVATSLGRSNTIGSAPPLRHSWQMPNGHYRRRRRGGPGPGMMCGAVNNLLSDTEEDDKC

SMILES	IC50 [nM]
CN([C@H](c1ccc(Cl)cc1)C(F)(F)F)S(=O)(=O)c1cccnn1 [Example 209, (R)—N-(1-(4-chlorophenyl)-2,2,2-trifluoroethyl)-N-methylpyridazine-3-sulfonamide]	191
COc1ccc([C@@H](N(C)S(=O)(=O)c2cncc(F)c2)C(F)(F)F)cc1 [Example 221, (R)-5-fluoro-N-methyl-N-(2,2,2-trifluoro-1-(4-methoxyphenyl)ethyl)pyridine-3-sulfonamide]	234
Cc1ccc([C@@H](N(C)S(=O)(=O)c2cncc(F)c2)C(F)(F)F)cc1 [Example 222, (R)-5-fluoro-N-methyl-N-(2,2,2-trifluoro-1-(p-tolyl)ethyl)pyridine-3-sulfonamide]	245
CN([C@H](c1ccc(F)cc1)C(F)(F)F)S(=O)(=O)c1cncc(F)c1 [Example 223, (R)-5-fluoro-N-methyl-N-(2,2,2-trifluoro-1-(4-fluorophenyl)ethyl)pyridine-3-sulfonamide]	145
Cc1ccc([C@@H](N(C)S(=O)(=O)c2cncc(C#N)c2)C(F)(F)F)cc1 [Example 225, (R)-5-cyano-N-methyl-N-(2,2,2-trifluoro-1-(p-tolyl)ethyl)pyridine-3-sulfonamide]	105
[2H]C([2H])([2H])N([C@H](c1ccc(Cl)cc1)C(F)(F)F)S(=O)(=O)c1cncc(C#N)c1 [Example 227, (R)—N-(1-(4-chlorophenyl)-2,2,2-trifluoroethyl)-5-cyano-N-(methyl-d3)pyridine-3-sulfonamide]	28.2
COc1cc(S(=O)(=O)N(C)[C@H](c2ccc(Cl)cc2)C(F)(F)F)c(OC)nn1 [Example 228, (R)—N-(1-(4-chlorophenyl)-2,2,2-trifluoroethyl)-3,6-dimethoxy-N-methylpyridazine-4-sulfonamide]	891
CN([C@H](c1ccc(C(F)(F)F)cc1)C(F)(F)F)S(=O)(=O)c1cnc2ccccn12 [Example 235, (R)—N-methyl-N-(2,2,2-trifluoro-1-(4-(trifluoromethyl)phenyl)ethyl)imidazo[1,2-a]pyridine-3-sulfonamide]	31.6
CCN([C@H](c1ccc(C(F)(F)F)cc1)C(F)(F)F)S(=O)(=O)c1cnc2ccccn12 [Example 237, (R)—N-ethyl-N-(2,2,2-trifluoro-1-(4-(trifluoromethyl)phenyl)ethyl)imidazo[1,2-a]pyridine-3-sulfonamide]	30.2
CN([C@H](c1ccc(OC(F)F)cc1)C(F)(F)F)S(=O)(=O)c1cncc(C#N)c1 [Example 240, (R)-5-cyano-N-(1-(4-(difluoromethoxy)phenyl)-2,2,2-trifluoroethyl)-N-methylpyridine-3-sulfonamide]	162
CN([C@H](c1ccc(OC(F)(F)F)cc1)C(F)(F)F)S(=O)(=O)c1cncc(C#N)c1 [Example 241, (R)-5-cyano-N-methyl-N-(2,2,2-trifluoro-1-(4-(trifluoromethoxy)phenyl)ethyl)pyridine-3-sulfonamide]	105
[2H][C@@](c1ccc(Cl)cc1)(N(C)S(=O)(=O)c1cncc(C#N)c1)C(F)(F)F [Example 242, N-(1-(4-chlorophenyl)-2,2,2-trifluoroethyl-1-d)-5-cyano-N-methylpyridine-3-sulfonamide]	35.5
CCN([C@@H](c1ccc(OC)cc1)C(F)(F)F)S(=O)(=O)c1cncc(F)c1 [Example 256, (S)—N-ethyl-5-fluoro-N-(2,2,2-trifluoro-1-(4-methoxyphenyl)ethyl)pyridine-3-sulfonamide]	4270
CCN([C@H](c1ccc(OC)cc1)C(F)(F)F)S(=O)(=O)c1cncc(F)c1 [Example 257, (R)—N-ethyl-5-fluoro-N-(2,2,2-trifluoro-1-(4-methoxyphenyl)ethyl)pyridine-3-sulfonamide]	22.9
CCN([C@@H](c1ccc(F)cc1)C(F)(F)F)S(=O)(=O)c1cncc(F)c1 [Example 260, (S)—N-ethyl-5-fluoro-N-(2,2,2-trifluoro-1-(4-fluorophenyl)ethyl)pyridine-3-sulfonamide]	3550
CCN([C@H](c1ccc(F)cc1)C(F)(F)F)S(=O)(=O)c1cncc(F)c1 [Example 261, (R)—N-ethyl-5-fluoro-N-(2,2,2-trifluoro-1-(4-fluorophenyl)ethyl)pyridine-3-sulfonamide]	11.7
CCN([C@H](c1ccc(F)cc1)C(F)(F)F)S(=O)(=O)c1cnccn1 [Example 265, (R)—N-ethyl-N-(2,2,2-trifluoro-1-(4-fluorophenyl)ethyl)pyrazine-2-sulfonamide]	39.8
CCN([C@H](c1ccc(C(F)(F)F)c(C)c1)C(F)(F)F)S(=O)(=O)c1cncc(C#N)c1 [Example 268, (R)-5-cyano-N-ethyl-N-(2,2,2-trifluoro-1-(3-methyl-4-(trifluoromethyl)phenyl)ethyl)pyridine-3-sulfonamide]	468
Cc1cc([C@@H](N(C)S(=O)(=O)c2cncc(C#N)c2)C(F)(F)F)ccc1C(F)(F)F [Example 269, (R)-5-cyano-N-methyl-N-(2,2,2-trifluoro-1-(3-methyl-4-(trifluoromethyl)phenyl)ethyl)pyridine-3-sulfonamide]	302
Cc1cc([C@@H](N(C)S(=O)(=O)c2cncc(F)c2)C(F)(F)F)ccc1C(F)(F)F [Example 270, (R)-5-fluoro-N-methyl-N-(2,2,2-trifluoro-1-(3-methyl-4-(trifluoromethyl)phenyl)ethyl)pyridine-3-sulfonamide]	490
CCN([C@H](c1ccc(C(F)(F)F)c(C)c1)C(F)(F)F)S(=O)(=O)c1cncc(F)c1 [Example 271, (R)—N-ethyl-5-fluoro-N-(2,2,2-trifluoro-1-(3-methyl-4-(trifluoromethyl)phenyl)ethyl)pyridine-3-sulfonamide]	162
CN([C@@H](c1ccc(F)cc1)C(F)(F)F)S(=O)(=O)c1cncc(C#N)c1 [Example 273, (S)-5-Cyano-N-methyl-N-(2,2,2-trifluoro-1-(4-fluorophenyl)ethyl)pyridine-3-sulfonamide]	1480
CN([C@H](c1ccc(F)cc1)C(F)(F)F)S(=O)(=O)c1cncc(C#N)c1 [Example 274, (R)-5-Cyano-N-methyl-N-(2,2,2-trifluoro-1-(4-fluorophenyl)ethyl)pyridine-3-sulfonamide]	100

Reference: US20250115569A1, “SULFONAMIDE COMPOUNDS FOR THE TREATMENT OF NEUROLOGICAL CONDITIONS” (LARIO THERAPEUTICS LIMITED, priority 2021, published 2025)
